From US4017607A
In brackets after ≈: the same amount, converted by molar mass. Read-outs that look alike come from different tables or passages of the source.

Experiments:
[1] = test system: Staphylococcus aureus 209P; assay: Minimum inhibitory concentration, serial dilution method, Brain Heart Infusion broth; assay type: cell-based; conditions: read-out: Minimum Inhibitory Concentration
[2] = test system: Staphylococcus aureus Terajima; assay: Minimum inhibitory concentration, serial dilution method; assay type: cell-based; conditions: read-out: Minimum Inhibitory Concentration
[3] = test system: Staphylococcus aureus Smith; assay: as above; assay type: cell-based; conditions: read-out: Minimum Inhibitory Concentration
[4] = test system: Staphylococcus albus 1200A; assay: as above; assay type: cell-based; conditions: read-out: Minimum Inhibitory Concentration
[5] = test system: Streptococcus faecalis ATCC 8043; assay: as above; assay type: cell-based; conditions: Enterococcus faecalis, read-out: Minimum Inhibitory Concentration
[6] = test system: Streptococcus hemolyticus Cook; assay: as above; assay type: cell-based; conditions: Streptococcus pyogenes; Streptococcus hemolyticus Cook; 24 hours, 37° C; read-out: Minimum Inhibitory Concentration
[7] = test system: Streptococcus hemolyticus D-90; assay: as above; assay type: cell-based; conditions: Streptococcus pyogenes, read-out: Minimum Inhibitory Concentration
[8] = test system: Streptococcus pyogenes D-58; assay: as above; assay type: cell-based; conditions: D58; Streptococcus pyogenes D-58; 24 hours, 37° C; read-out: Minimum Inhibitory Concentration
[9] = test system: Diplococcus pneumoniae Type I; assay: as above; assay type: cell-based; conditions: Streptococcus pneumoniae; Diplococcus pneumoniae Type I; 24 hours, 37° C; read-out: Minimum Inhibitory Concentration
[10] = test system: Diplococcus pneumoniae Type III; assay: as above; assay type: cell-based; conditions: Streptococcus pneumoniae; Diplococcus pneumoniae Type III; 24 hours, 37° C; read-out: Minimum Inhibitory Concentration
[11] = test system: Bacillus subtilis PCI 219; assay: as above; assay type: cell-based; conditions: PCI219; Bacillus subtilis PCI 219; 24 hours, 37° C; read-out: Minimum Inhibitory Concentration
[12] = test system: Bacillus subtilis ATCC 6633; assay: as above; assay type: cell-based; conditions: read-out: Minimum Inhibitory Concentration
[13] = test system: Bacillus anthracis No. 119; assay: microbe, parasite or virus in culture; assay type: cell-based; conditions: NO.119, 24 h, read-out: Minimum Inhibitory Concentration
[14] = test system: Corynebacterium diphtheriae Type gravis; assay: Minimum inhibitory concentration, serial dilution method; assay type: cell-based; conditions: Corynebacterium diphtheriae Type gravis; 24 hours, 37° C; read-out: Minimum Inhibitory Concentration
[15] = test system: Corynebacterium diphtheriae Type intermedius; assay: as above; assay type: cell-based; conditions: Corynebacterium diphtheriae Type intermedius; 24 hours, 37° C; read-out: Minimum Inhibitory Concentration
Sarcina lutea = assay: as above; assay type: cell-based; conditions: Micrococcus luteus; Sarcina lutea; 24 hours, 37° C; read-out: Minimum Inhibitory Concentration
[16] = test system: Staphylococcus aureus 209P; conditions: 7th day, 10 mice per group
[17] = Staphylococcus aureus, 209P, 24 h
[18] = Staphylococcus aureus Smith, 24 hours, 37° C
[19] = ATCC8043, Streptococcus faecalis ATCC 8043, 24 hours, 37° C
[20] = ATCC6633, Bacillus subtilis ATCC 6633, 24 hours, 37° C
[21] = Staphylococcus albus 1200A, 24 hours, 37° C
[22] = Bacillus subtilis, ATCC6633, 24 h
[23] = Staphylococcus aureus 209P, 24 hours, 37° C
[24] = Staphylococcus aureus Terajima, 24 hours, 37° C
[25] = D90, Streptococcus hemolyticus D-90, 24 hours, 37° C

Row | Compound | MIC [1, 17] [µg/mL] | MIC ([2]; Staphylococcus aureus, 24 h) [µg/mL] | MIC [3, 18] [µg/mL] | MIC [5, 19] [µg/mL] | MIC [6] [µg/mL] | MIC [8] [µg/mL] | MIC [9] [µg/mL] | MIC [10] [µg/mL] | MIC [11] [µg/mL] | MIC [12, 20] [µg/mL] | MIC [13] [µg/mL] | MIC [14] [µg/mL] | MIC [15] [µg/mL] | MIC (Sarcina lutea) [µg/mL] | Rate of surviving mice in each group of mice ([16]; 100 mg/kg oral) | Rate of surviving mice in each group of mice ([16]; 200 mg/kg oral) | MIC [4, 21] [µg/mL] | MIC [1, 23] [µg/mL] | MIC [2, 24] [µg/mL] | MIC [7, 25] [µg/mL] | other results
1 | CCC(=O)OC1CC(=O)OC(C)CC=CC=CC(OC(C)=O)C(C)CC(CC=O)C(OC2OC(C)C(OC3CC(C)(O)C(OC(=O)CC)C(C)O3)C(N(C)C)C2OC(C)=O)C1OC (stereo not drawn) [9,2'-di-acetyl SF-837 substance, reference compound] | 1.56 (≈ 1.74 µM) | 1.56 (≈ 1.74 µM) | 0.39 (≈ 0.434 µM) | 3.12 (≈ 3.47 µM) | 0.19 (≈ 0.212 µM) | 0.19 (≈ 0.212 µM) | 0.09 (≈ 0.1 µM) | 0.09 (≈ 0.1 µM) | 0.78 (≈ 0.869 µM) | 3.12 (≈ 3.47 µM) | 1.56 (≈ 1.74 µM) | 0.39 (≈ 0.434 µM) | 0.19 (≈ 0.212 µM) | 0.19 (≈ 0.212 µM) | 0/10 | 6/10 |  |  |  |  | MIC ([4]; Staphylococcus, 1200A, 24 h): 1.56 µg/mL (≈ 1.74 µM); MIC ([7]; D90, 24 h): 1.56 µg/mL (≈ 1.74 µM)
2 | CCC(=O)OC1CC(=O)OC(C)CC=CC=CC(OC(C)=O)C(C)CC(CC=O)C(OC2OC(C)C(OC3CC(C)(O)C(OC(=O)CC)C(C)O3)C(N(C)C)C2O)C1OC (stereo not drawn) [9-mono-acetyl SF-837 substance, reference compound] | 1.56 (≈ 1.82 µM) | 1.56 (≈ 1.82 µM) | 0.78 (≈ 0.911 µM) |  | 0.39 (≈ 0.456 µM) | 0.39 (≈ 0.456 µM) | 0.04 (≈ 0.0467 µM) | 0.04 (≈ 0.0467 µM) | 0.78 (≈ 0.911 µM) |  | 1.56 (≈ 1.82 µM) | 0.19 (≈ 0.222 µM) | 0.19 (≈ 0.222 µM) | 0.09 (≈ 0.105 µM) | 5/10 | 8/10 | 0.78 (≈ 0.911 µM) |  |  |  | MIC ([5]; ATCC8043, 24 h): 1.56 µg/mL (≈ 1.82 µM); MIC ([7]; D90, 24 h): 1.56 µg/mL (≈ 1.82 µM); MIC [12, 22]: 1.56 µg/mL (≈ 1.82 µM)
3 | CCC(=O)OC1CC(=O)OC(C)CC=CC=CC(OC(C)=O)C(C)CC(CC=O)C(OC2OC(C)C(OC3CC(C)(OC(=O)CC)C(OC(C)=O)C(C)O3)C(N(C)C)C2O)C1OC (stereo not drawn) [Compound No. 1] |  |  | 0.39 (≈ 0.434 µM) | 0.78 (≈ 0.869 µM) | 0.19 (≈ 0.212 µM) | 0.19 (≈ 0.212 µM) | 0.09 (≈ 0.1 µM) | 0.09 (≈ 0.1 µM) | 0.78 (≈ 0.869 µM) | 1.56 (≈ 1.74 µM) | 0.78 (≈ 0.869 µM) | 0.19 (≈ 0.212 µM) | 0.19 (≈ 0.212 µM) | 0.09 (≈ 0.1 µM) | 6/10 | 10/10 | 1.56 (≈ 1.74 µM) | 1.56 (≈ 1.74 µM) | 3.12 (≈ 3.47 µM) | 0.78 (≈ 0.869 µM) | 
4 | CCC(=O)OC1CC(=O)OC(C)CC=CC=CC(OC(C)=O)C(C)CC(CC=O)C(OC2OC(C)C(OC3CC(C)(OC(C)=O)C(OC(=O)CC)C(C)O3)C(N(C)C)C2O)C1OC (stereo not drawn) [Compound No. 2] |  |  | 0.39 (≈ 0.434 µM) | 0.78 (≈ 0.869 µM) | 0.19 (≈ 0.212 µM) | 0.19 (≈ 0.212 µM) | 0.09 (≈ 0.1 µM) | 0.09 (≈ 0.1 µM) | 0.78 (≈ 0.869 µM) | 1.56 (≈ 1.74 µM) | 0.78 (≈ 0.869 µM) | 0.19 (≈ 0.212 µM) | 0.19 (≈ 0.212 µM) | 0.09 (≈ 0.1 µM) | 8/10 | 10/10 | 1.56 (≈ 1.74 µM) | 1.56 (≈ 1.74 µM) | 3.12 (≈ 3.47 µM) | 0.78 (≈ 0.869 µM) | 
5 | CCC(=O)OC1CC(=O)OC(C)CC=CC=CC(OC(C)=O)C(C)CC(CC=O)C(OC2OC(C)C(OC3CC(C)(OC(=O)CC)C(OC(=O)C(C)C)C(C)O3)C(N(C)C)C2O)C1OC (stereo not drawn) [Compound No. 3] | 1.56 (≈ 1.68 µM) |  | 0.39 (≈ 0.421 µM) | 0.78 (≈ 0.842 µM) | 1.9 (≈ 2.05 µM) | 0.19 (≈ 0.205 µM) | 0.09 (≈ 0.0972 µM) | 0.09 (≈ 0.0972 µM) | 0.78 (≈ 0.842 µM) |  | 1.56 (≈ 1.68 µM) | 0.19 (≈ 0.205 µM) | 0.19 (≈ 0.205 µM) | 0.09 (≈ 0.0972 µM) | 4/10 | 10/10 |  |  | 3.12 (≈ 3.37 µM) | 0.78 (≈ 0.842 µM) | MIC ([4]; Staphylococcus, 1200A, 24 h): 1.56 µg/mL (≈ 1.68 µM); MIC [12, 22]: 1.56 µg/mL (≈ 1.68 µM)
6 | CCC(=O)OC1CC(=O)OC(C)CC=CC=CC(OC(C)=O)C(C)CC(CC=O)C(OC2OC(C)C(OC3CC(C)(OC(=O)CC)C(OC(=O)CC(C)C)C(C)O3)C(N(C)C)C2O)C1OC (stereo not drawn) [Compound No. 4] | 1.56 (≈ 1.66 µM) | 1.56 (≈ 1.66 µM) |  | 0.78 (≈ 0.83 µM) | 0.39 (≈ 0.415 µM) | 0.19 (≈ 0.202 µM) | 0.39 (≈ 0.415 µM) | 0.19 (≈ 0.202 µM) | 0.78 (≈ 0.83 µM) |  | 1.56 (≈ 1.66 µM) | 0.19 (≈ 0.202 µM) | 0.19 (≈ 0.202 µM) | 0.09 (≈ 0.0957 µM) | 0/10 | 3/10 |  |  |  | 0.19 (≈ 0.202 µM) | MIC ([3]; Staphylococcus aureus, 24 h): 1.56 µg/mL (≈ 1.66 µM); MIC ([4]; Staphylococcus, 1200A, 24 h): 1.56 µg/mL (≈ 1.66 µM); MIC [12, 22]: 1.56 µg/mL (≈ 1.66 µM)
7 | CCC(=O)OC1C=CC=CCC(C)OC(=O)CC(OC(=O)CC)C(OC)C(OC2OC(C)C(OC3CC(C)(OC(=O)CC)C(OC(C)=O)C(C)O3)C(N(C)C)C2O)C(CC=O)CC1C (stereo not drawn) [Compound No. 5] |  |  | 0.78 (≈ 0.855 µM) | 0.78 (≈ 0.855 µM) | 0.39 (≈ 0.428 µM) | 0.19 (≈ 0.208 µM) | 0.09 (≈ 0.0987 µM) | 0.09 (≈ 0.0987 µM) | 1.56 (≈ 1.71 µM) | 1.56 (≈ 1.71 µM) | 0.78 (≈ 0.855 µM) | 0.19 (≈ 0.208 µM) | 0.19 (≈ 0.208 µM) | 0.09 (≈ 0.0987 µM) | 4/10 | 8/10 | 1.56 (≈ 1.71 µM) | 1.56 (≈ 1.71 µM) | 3.12 (≈ 3.42 µM) | 0.78 (≈ 0.855 µM) | 
8 | CCC(=O)OC1CC(=O)OC(C)CC=CC=CC(OC(C)=O)C(C)CC(CC=O)C(OC2OC(C)C(OC3CC(C)(OC(=O)CC)C(OC(=O)CC)C(C)O3)C(N(C)C)C2O)C1OC (stereo not drawn) [Compound No. 6] |  |  | 0.39 (≈ 0.428 µM) | 0.78 (≈ 0.855 µM) | 0.19 (≈ 0.208 µM) | 0.19 (≈ 0.208 µM) | 0.09 (≈ 0.0987 µM) | 0.09 (≈ 0.0987 µM) | 0.78 (≈ 0.855 µM) | 1.56 (≈ 1.71 µM) | 0.78 (≈ 0.855 µM) | 0.19 (≈ 0.208 µM) | 0.19 (≈ 0.208 µM) | 0.09 (≈ 0.0987 µM) | 6/10 | 10/10 | 1.56 (≈ 1.71 µM) | 1.56 (≈ 1.71 µM) | 3.12 (≈ 3.42 µM) | 0.78 (≈ 0.855 µM) | 
